In US5006535A, “Substituted heterocylic 4-aminoquinoline derivatives as gastric acid secretion inhibitors” (Smith Kline & French Laboratories Ltd., priority 1988, dated 1991):

Experiments:
[1] = target: T1, H^+ K^+ ATPase (Sus scrofa, UniProt P19156); experiment: H^+ K^+ ATPase Activity (K^+ -stimulated ATPase activity in lyophilised gastric vesicles); assay type: biochemical; conditions: pig lyophilised gastric vesicles, pH 7.0, 37°, 30 minutes
T1 construct: Lyophilised gastric vesicles were prepared from pig fundic mucosa; from tissue; host or cells: pig fundic mucosa, lyophilised gastric vesicles
T1 sequence (P19156 2-1034 limits assumed): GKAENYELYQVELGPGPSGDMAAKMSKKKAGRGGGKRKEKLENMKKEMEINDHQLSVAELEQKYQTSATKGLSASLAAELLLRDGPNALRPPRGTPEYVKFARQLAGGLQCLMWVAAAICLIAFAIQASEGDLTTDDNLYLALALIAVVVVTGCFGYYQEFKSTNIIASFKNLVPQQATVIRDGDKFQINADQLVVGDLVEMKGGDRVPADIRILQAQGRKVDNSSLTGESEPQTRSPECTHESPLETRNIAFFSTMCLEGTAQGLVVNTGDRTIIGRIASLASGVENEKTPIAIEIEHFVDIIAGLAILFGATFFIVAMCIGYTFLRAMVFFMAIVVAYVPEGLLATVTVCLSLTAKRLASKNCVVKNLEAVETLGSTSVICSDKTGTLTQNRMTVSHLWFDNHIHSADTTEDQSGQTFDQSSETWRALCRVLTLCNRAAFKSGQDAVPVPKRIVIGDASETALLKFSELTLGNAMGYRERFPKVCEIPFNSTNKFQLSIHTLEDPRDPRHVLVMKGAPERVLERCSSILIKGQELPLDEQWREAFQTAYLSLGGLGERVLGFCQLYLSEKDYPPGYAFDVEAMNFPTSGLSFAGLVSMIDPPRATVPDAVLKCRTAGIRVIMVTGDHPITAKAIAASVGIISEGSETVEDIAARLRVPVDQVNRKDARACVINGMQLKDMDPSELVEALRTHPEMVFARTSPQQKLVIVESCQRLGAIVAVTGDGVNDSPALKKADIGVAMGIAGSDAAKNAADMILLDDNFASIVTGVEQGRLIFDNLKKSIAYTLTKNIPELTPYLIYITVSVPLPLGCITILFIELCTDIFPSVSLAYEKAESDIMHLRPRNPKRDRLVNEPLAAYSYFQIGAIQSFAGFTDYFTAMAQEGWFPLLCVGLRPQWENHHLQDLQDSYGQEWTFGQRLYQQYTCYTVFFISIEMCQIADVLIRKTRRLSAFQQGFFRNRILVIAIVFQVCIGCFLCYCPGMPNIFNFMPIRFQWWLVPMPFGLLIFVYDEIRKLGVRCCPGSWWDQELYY
T1 sequence (P18434 whole entry partner): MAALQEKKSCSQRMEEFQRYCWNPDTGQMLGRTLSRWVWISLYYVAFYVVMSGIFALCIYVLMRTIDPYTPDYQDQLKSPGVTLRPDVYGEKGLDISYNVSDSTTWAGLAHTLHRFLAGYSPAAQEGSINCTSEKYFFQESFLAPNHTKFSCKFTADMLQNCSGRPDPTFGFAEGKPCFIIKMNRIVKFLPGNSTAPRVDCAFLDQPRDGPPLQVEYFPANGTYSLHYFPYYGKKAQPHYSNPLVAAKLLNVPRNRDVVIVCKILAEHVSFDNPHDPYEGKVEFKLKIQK
Experimental: The effects of a single high concentration (100 μM) of a compound of structure (I) on K-stimulated ATPase activity in lyophilised gastric vesicles was determined. Preferred compounds of structure (I) were also tested over a range of concentrations to determine IC50 values.
Lyophilised gastric vesicles were prepared from pig fundic mucosa after the method of Keeling et. al. (Biochem. Pharmacol., 34, 2967, 1985).
K^+ -stimulated ATPase activity was determined at 37° in the presence of the following: 10 mM Pipes/Tris buffer pH 7.0, 2 mM MgSO4, 1 mM KCl, 2 mM Na2 ATP and 3-6 μg protein/ml lyophilised gastric vesicles. After incubation for 30 minutes, the inorganic phosphate hydrolysed from ATP was determined by the method of Yoda and Hokin (Biochem. Biophys. Res. Commun. 40, 880, 1970).
Compounds of structure (I) were dissolved in dimethylsulphoxide which up to the highest concentration used had no effect on K^+ -stimulated ATPase activity.
The effect of the highest concentration of each compound of structure (I) on the recovery of a standard amount of inorganic phosphate was also determined.

[2] = system: pentagastrin stimulated gastric acid secretion; experiment: Rat Lumen Perfused Stomach (pentagastrin stimulated gastric acid secretion); assay type: in vivo; conditions: for % inhibition of pentagastrin stimulated gastric acid secretion: i.v., 10 μmole/kg
From the text: B. Rat Lumen Perfused Stomach (pentagastrin stimulated gastric acid secretion).
Using a modification of the procedure described by Ghosh & Schild (Br. J. Pharmacology, 13, 54, 1958), the compounds of the following examples were found on i.v. administration at a concentration of 10 μmole/kg to cause an inhibition of pentagastrin stimulated gastric acid secretion as indicated in the following table. Results are given as % inhibition at 10 μmole/kg or ED50 (μM/kg): […]

Row | Compound | IC50 [1] | ED50 ([2]; iv, read-out: ED50, inhibition of pentagastrin stimulated gastric acid secretion) | % inhibition of pentagastrin stimulated gastric acid secretion [2]
1 | CCOC(=O)c1cnc2c(OC)cccc2c1Nc1cscc1C [Example 1, Ethyl 8-methoxy-4-(4-methyl-3-thienylamino)quinoline 3-carboxylate] | 530 nM | 4.62 µmol/kg | 
2 | CCCC(=O)c1cnc2c(OC)cccc2c1Nc1ccsc1CC [Example 2, 3-Butyryl-4-(2-ethyl-3-thienylamino)-8-methoxyquinoline] | 1400 nM |  | 61%
3 | CCCC(=O)c1cnc2c(OC)cccc2c1Nc1ccsc1C(=O)OC [Example 3] |  |  | 48%
4 | CCCC(=O)c1cnc2c(OC)cccc2c1Nc1sccc1C [Example 4, 3-Butyryl-4-(3-methyl-2-thienylamino)-8-methoxyquinoline] | 2300 nM |  | 58%
5 | CCOC(=O)c1cnc2c(OC)cccc2c1Nc1cscc1OC [Example 5, Ethyl 8-methoxy-4-(4-methoxy-3-thienylamino)quinoline-3-carboxylate] | 3400 nM |  | 41%
